Measurements reported in patent US8796330B2, “Inhibitors of histone deacetylase and prodrugs thereof” (Methylgene Inc., priority 2006, dated 2014).
Values after ≈ are worked out from the molar mass of the structure shown. Read-outs that look alike come from different tables or passages of the source.

How the values were obtained:
[1] = target: recombinant human HDAC-1 enzyme (rHDAC-1) (Homo sapiens (Human), UniProt Q13547); assay: Inhibition of recombinant human HDAC-1 ([3H]-acetylated histone substrate); format: biochemical
Sequence of recombinant human HDAC-1 enzyme (rHDAC-1) (Q13547 whole entry): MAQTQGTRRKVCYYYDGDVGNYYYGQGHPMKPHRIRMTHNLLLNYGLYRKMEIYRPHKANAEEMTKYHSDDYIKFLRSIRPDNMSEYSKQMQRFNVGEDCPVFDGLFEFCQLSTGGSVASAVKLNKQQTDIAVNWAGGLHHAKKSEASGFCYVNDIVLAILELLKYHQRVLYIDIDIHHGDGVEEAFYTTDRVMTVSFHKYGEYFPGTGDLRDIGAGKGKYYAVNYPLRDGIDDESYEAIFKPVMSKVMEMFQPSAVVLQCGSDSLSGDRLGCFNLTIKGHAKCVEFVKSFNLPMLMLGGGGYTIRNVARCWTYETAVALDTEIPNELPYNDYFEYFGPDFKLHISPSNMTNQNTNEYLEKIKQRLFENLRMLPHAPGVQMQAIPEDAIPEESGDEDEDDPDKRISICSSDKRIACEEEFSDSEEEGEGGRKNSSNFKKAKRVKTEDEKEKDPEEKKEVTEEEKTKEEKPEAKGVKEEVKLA

[2] = system: histone deacetylase in nuclear extracts from H446 cells (pooled HDACs); assay: Inhibition of histone deacetylase in H446 nuclear extracts ([3H]-acetylated histone substrate); format: biochemical, human
[3] = system: acetylated histone H-4 in T24 human bladder cancer cells; assay: Histone H4 acetylation in whole cells by immunoblots; format: cell-based; conditions: T-24, read-out: EC50, concentration effective for increasing the acetylated H-4 signal by 50%, 16 hours incubation, immunoblot densitometry
Experimental: T24 human bladder cancer cells growing in culture are incubated with HDAC inhibitors for 16 hours. […] of total histone protein are loaded onto SDS/PAGE and transferred to nitrocellulose membranes. Membranes are probed with polyclonal antibodies specific for acetylated histone H-4 (Upstate Biotech Inc.), followed by horse radish peroxidase conjugated secondary antibodies (Sigma). Enhanced Chemiluminescence (ECL) (Amersham) detection is performed using Kodak films (Eastman Kodak). Acetylated H-4 signal is quantified by densitometry.

[4] = Solubility; format: physicochemical
[5] = target: rHDAC-8 (Homo sapiens (Human), UniProt Q9BY41); assay: Fluorogenic Boc-Lys(Ac)-AMC deacetylase assay (Table 4a), rHDAC-8; format: biochemical; conditions: for IC50: Boc-Lys(Ac)-AMC substrate, PI values = IC50 at maximum % inhibition reached; for rHDAC-8 partial inhibition (maximum % inhibition reached): PI = 100% inhibition not reached
Sequence of rHDAC-8 (Q9BY41 whole entry): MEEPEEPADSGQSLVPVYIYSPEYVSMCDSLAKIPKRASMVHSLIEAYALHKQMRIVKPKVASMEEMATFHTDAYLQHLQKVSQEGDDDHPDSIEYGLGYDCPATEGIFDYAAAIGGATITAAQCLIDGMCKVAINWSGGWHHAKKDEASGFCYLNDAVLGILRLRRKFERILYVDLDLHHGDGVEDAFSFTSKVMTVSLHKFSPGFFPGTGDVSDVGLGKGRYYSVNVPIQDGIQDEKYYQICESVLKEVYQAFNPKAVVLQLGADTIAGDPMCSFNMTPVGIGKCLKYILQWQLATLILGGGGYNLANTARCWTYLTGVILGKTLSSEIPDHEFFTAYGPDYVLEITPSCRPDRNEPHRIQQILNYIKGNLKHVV
Experimental: (§1) Alternatively (Table 4a), the following protocol is used to assay the compounds of the invention. In the assay, the buffer used is 25 mM HEPES, pH 8.0, 137 mM NaCl, 2.7 mM KCl, 1 mM MgCl2 and the substrate is Boc-Lys(Ac)-AMC in a 50 mM stock solution in DMSO. The enzyme stock solution is 4.08 μg/mL in buffer. The compounds are pre-incubated (2 μl in DMSO diluted to 13 μl in buffer for transfer to assay plate) with enzyme (20 μl of 4.08 μg/ml) for 10 minutes at room temperature (35 μl pre-incubation volume). The mixture is pre-incubated for 5 minutes at room temperature. The reaction is started by bringing the temperature to 37° C. and adding […] substrate. Total reaction volume is 50 μl. […] A plate is incubated in the dark for 10 minutes at room temperature before reading (λEx=360 nm, λEm=470 nm, Cutoff filter at 435 nm).

[6] = target: rHDAC-1 (Homo sapiens (Human), UniProt Q13547); assay: Fluorogenic Boc-Lys(Ac)-AMC deacetylase assay (Table 4a), rHDAC-1; format: biochemical; conditions: for IC50: Boc-Lys(Ac)-AMC substrate, PI values = IC50 at maximum % inhibition reached; for rHDAC-1 partial inhibition (maximum % inhibition reached): PI = 100% inhibition not reached
Sequence of rHDAC-1 (Q13547 whole entry): as the sequence (Q13547 whole entry) above
Experimental: as §1

[7] = Table 4, recombinant human HDAC-1
[8] = Milli-Q purified water, read-out: Solubility Water
[9] = pH 2, simulated gastric fluid, read-out: Solubility pH 2

Row | SMILES | IC50 [1, 7] [nM] | IC50 ([2]; H446 nuclear extract) [nM] | further results
1 | O=C(CCCCc1ccc(NS(=O)(=O)c2ccccc2)cc1)NO [Compound 34] | 300 | 2000 | –
2 | O=C(/C=C/c1ccc(NS(=O)(=O)c2ccccc2)cc1)NO [Compound 36, N-Hydroxy-3-[4-(benzenesulfonylamino)-phenyl]-2-propenamide] | – | 500 | EC50 [3]: 5000 nM
3 | O=C(CCc1ccc(NS(=O)(=O)c2ccccc2)cc1)NO [Compound 38, N-Hydroxy-3-[4-(benzenesulfonylamino)-phenyl]-2-propanamide] | 100 | 750 | –
4 | O=C(NO)c1ccc(CCSc2ccccc2)cc1 [Compound 70, N-Hydroxy-4-(2-thiophenyl)-ethyl benzamide] | – | – | IC50 [1]: 900 nM; IC50 [2]: 5500 nM
5 | O=C(CCc1ccc(CCCc2ccccc2)cc1)NO [Compound 77, N-Hydroxy-3-[4-(3-phenylpropyl)-phenyl]-propanamide] | 650 | – | –
6 | CC(C)C(Cc1ccc(NS(=O)(=O)c2ccccc2)cc1)C(=O)NO (stereo not drawn) [Compound 81] | > 25000 | > 50000 | –
7 | O=C(/C=C/c1ccc(NS(=O)(=O)c2cccs2)cc1)NO [Compound 87] | 600 | 3000 | –
8 | COc1ccc(S(=O)(=O)Nc2ccc(/C=C/C(=O)NO)cc2)cc1OC [Compound 90] | – | 400 | EC50 [3]: 1000 nM
9 | O=C(/C=C/c1ccc(NS(=O)(=O)c2ccc3ccccc3c2)cc1)NO [Compound 94] | 30 | 400 | –
10 | O=C(/C=C/c1ccc(NS(=O)(=O)c2cc3ccccc3s2)cc1)NO [Compound 95] | 200 | 800 | –
11 | CN(C)c1cccc2c(S(=O)(=O)Nc3ccc(/C=C/C(=O)NO)cc3)cccc12 [Compound 97] | 280 | 800 | –
12 | COc1ccc(NS(=O)(=O)c2ccc(/C=C/C(=O)NO)cc2)cc1OC [Compound 98] | 60 | – | –
13 | O=C(/C=C/c1ccc(NS(=O)(=O)Cc2ccccc2)cc1)NO [Compound 100] | 750 | 800 | –
14 | O=C(/C=C/c1ccc(NS(=O)(=O)c2ccc3oc4ccccc4c3c2)cc1)NO [Compound 101] | 40 | 300 | –
15 | O=C(/C=C/c1ccc(NS(=O)(=O)c2ccc(-c3cccs3)s2)cc1)NO [Compound 103] | 50 | 700 | –
16 | O=C(/C=C/c1ccc(NS(=O)(=O)c2ccc(Cl)cc2Cl)cc1)NO [Compound 106] | 300 | 800 | –
17 | Nc1ccccc1NC(=O)/C=C/c1ccc(NS(=O)(=O)c2cccc3ccccc23)cc1 [Compound 107] | 5000 | – | EC50 [3]: 5000 nM; pooled HDACs percent inhibition ([2]; H446 nuclear extract, @ 1 μM): 0% @ 1 μM

Row | SMILES | IC50 [1, 7] [nM] | IC50 ([2]; H446 nuclear extract) [nM] | further results
18 | Cc1ccc(S(=O)(=O)Nc2ccc(/C=C/C(=O)NO)cc2)cc1 [Compound 108] | 300 | – | pooled HDACs percent inhibition ([2]; H446 nuclear extract, @ 1 μM): 10% @ 1 μM
19 | O=C(/C=C/c1ccc(NS(=O)(=O)c2ccc(Cl)c(Cl)c2)cc1)NO [Compound 109] | 120 | – | pooled HDACs percent inhibition ([2]; H446 nuclear extract, @ 1 μM): 32% @ 1 μM
20 | CC(C)c1cc(C(C)C)c(S(=O)(=O)Nc2ccc(/C=C/C(=O)NO)cc2)c(C(C)C)c1 [Compound 110] | 550 | 700 | –
21 | O=C(/C=C/c1ccc(NS(=O)(=O)c2cc(Cl)cc(Cl)c2O)cc1)NO [Compound 111] | 95 | 400 | –
22 | COc1ccc(S(=O)(=O)Nc2ccc(/C=C/C(=O)NO)cc2)cc1 [Compound 113] | 200 | – | pooled HDACs percent inhibition ([2]; H446 nuclear extract, @ 1 μM): 46% @ 1 μM
23 | COc1ccc(S(=O)(=O)Nc2ccc(/C=C/C(=O)Nc3ccccc3N)cc2)cc1OC [Compound 116] | 4000 | – | –
24 | O=C(/C=C/c1ccc(NS(=O)(=O)c2ccc(-c3ccccc3)cc2)cc1)NO [Compound 120] | 10 | 120 | EC50 [3]: 1000 nM
25 | COc1ccc(S(=O)(=O)Nc2ccc(/C=C/C(=O)Nc3ccccc3N)cc2)cc1 [Compound 122] | – | – | EC50 [3]: 2000 nM
26 | CC(C)(N)C(=O)ONC(=O)Cc1ccc(CCCCc2ccccc2)cc1.Cl [Compound 174f, N-(2-amino-2-methylpropanoyloxy)-2-(4-(4-phenylbutyl)phenyl)acetamide hydrochloride] | – | – | solubility [4, 8]: 5 µM; solubility [4, 9]: 4 µM
27 | Cl.NCC1(C(=O)ONC(=O)Cc2ccc(CCCCc3ccccc3)cc2)CC1 [Compound 174g, N-(1-(aminomethyl)cyclopropanecarbonyloxy)-2-(4-(4-phenylbutyl)phenyl)acetamide hydrochloride] | – | – | solubility [4, 8]: 195 µM; solubility [4, 9]: 132 µM
28 | O=C(Cc1ccc(CCCCc2cc(F)c(F)cc2F)cc1)NO [Compound 179, N-hydroxy-2-(4-(4-(2,4,5-trifluorophenyl)butyl)phenyl)acetamide] | – | – | IC50 [5]: 530 nM; IC50 [6]: 500 nM
29 | O=C(Cc1ccc(CCCCc2ccc(C(F)(F)F)cc2)cc1)NO [Compound 182, N-hydroxy-2-(4-(4-(4-(trifluoromethyl)phenyl)butyl)phenyl)acetamide] | – | – | IC50 [5]: 1300 nM; rHDAC-8 partial inhibition (maximum % inhibition reached) [5]: 74%; IC50 [6]: 700 nM; rHDAC-1 partial inhibition (maximum % inhibition reached) [6]: 64%
30 | O=C(Cc1ccc(CCCCc2ccc3[nH]ccc3c2)cc1)NO [Compound 183, 2-(4-(4-(1H-indol-5-yl)butyl)phenyl)-N-hydroxyacetamide] | – | – | IC50 [5]: 410 nM; IC50 [6]: 380 nM
31 | O=C(Cc1ccc(CCCCc2cccc(C(F)(F)F)c2)cc1)NO [Compound 184, N-hydroxy-2-(4-(4-(3-(trifluoromethyl)phenyl)butyl)phenyl)acetamide] | – | – | IC50 [5]: 400 nM; rHDAC-8 partial inhibition (maximum % inhibition reached) [5]: 79%; IC50 [6]: 930 nM
32 | O=C(Cc1ccc(CCCCc2ccccc2C(F)(F)F)cc1)NO [Compound 185, N-hydroxy-2-(4-(4-(2-(trifluoromethyl)phenyl)butyl)phenyl)acetamide] | – | – | IC50 [5]: 610 nM; IC50 [6]: 840 nM
33 | O=C(Cc1ccc(CCCCc2ccc3c(c2)OCO3)cc1)NO [Compound 187, 2-(4-(4-(benzo[d][1,3]dioxol-5-yl)butyl)phenyl)-N-hydroxyacetamide] | – | – | IC50 [5]: 210 nM; IC50 [6]: 200 nM; rHDAC-1 partial inhibition (maximum % inhibition reached) [6]: 62%
34 | O=C(Cc1ccc(CCCCc2ccccc2)cc1)NO [H] | – | – | solubility [4, 8]: 3 µM (≈ 0.85 µg/mL); solubility [4, 9]: 3 µM (≈ 0.85 µg/mL)

Further lines, with some results ahead:

Row | IC50 [1, 7] [nM] | IC50 ([2]; H446 nuclear extract) [nM] | SMILES | further results
35 | 1000 | – | Nc1ccccc1NC(=O)/C=C/c1ccc(NS(=O)(=O)c2ccc(-c3ccccc3)cc2)cc1 [Compound 123] | –
36 | 3000 | – | Nc1ccccc1NC(=O)C#Cc1ccc(NS(=O)(=O)c2ccc(-c3ccccc3)cc2)cc1 [Compound 129] | –
37 | 40 | – | O=C(/C=C/c1ccc(S(=O)(=O)Nc2ccc(-c3ccccc3)cc2)cc1)NO [Compound 162] | –
38 | > 20000 | – | Nc1ccccc1NC(=O)c1ccc(CC(=O)c2ccccc2)o1 [Compound 178] | pooled HDACs percent inhibition ([2]; H446 nuclear extract, @ 20 μM): 2% @ 20 μM
